The source of these data is patent US10774132B2, “Ultralong complementarity determining regions and uses thereof” (THE SCRIPPS RESEARCH INSTITUTE, priority 2012, dated 2020).

The target of one series is T1, GLP-1 receptor (GLP-1R) (Homo sapiens, UniProt P43220).
T1 construct: expressed in transfected cells; host or cells: HEK293 (with cAMP responsive luciferase reporter gene)
Kind of series: GLP-1R activation, cAMP responsive luciferase reporter in HEK293 cells. The class given is cell-based. The following applies: HEK293 cells expressing GLP-1R, 24 h. As for the experimental part: HEK293 cells expressing surface GLP-1R and cAMP responsive luciferase reporter gene were seeded in 384 well plates at a density of 5000 cells per well. […] Subsequently, luciferase assay was performed using One-Glo luciferase reagent according manufacture's instruction (Promega).
HEK293 cells expressing surface GLP-1R and cAMP responsive luciferase reporter gene were seeded in 384 well plates at a density of 5000 cells per well. After 24 h incubation at 37° C. with 5% CO2, cells were treated with various concentrations of peptides and BLV1H12-GLP-1 clip fusion proteins and incubated for another 24 h. Subsequently, luciferase assay was performed using One-Glo luciferase reagent according manufacture's instruction (Promega).

Another series deals with Mouse NFS-60 cells. Kind of series: Proliferation assay on mouse NFS-60 cells (AlamarBlue). The class given is cell-based. The following applies: 72 hours. As for the experimental part:
Mouse NFS-60 cells were obtained from American Type Culture Collection (ATCC), VA, and cultured in RPMI-1640 medium supplemented with 10% fetal bovine serum (FBS), 0.05 mM 2-mercapoethanol and 62 ng/ml human macrophage colony stimulating factor (M-CSF). For proliferation assay, mouse NFS-60 cells were washed three times with RPMI-1640 medium and resuspended in RPMI-1640 medium with 10% FBS and 0.05 mM 2-mercapoethanol at a density of 1.5×10^5 cells/ml. In 96-well plates, 100 μl of cell suspension was added into each well, followed by the addition of varied concentrations of bGCSF, BLV1H12 antibody, and the immunoglobulin constructs described herein, Equal volume of PBS buffer was added into the control wells. The plates were incubated at 37° C. in a 5% CO2 incubator for 72 hours. Cells were then treated with AlamarBlue (Invitrogen) ( 1/10 volume of cell suspension) for 4 hours at 37° C. Fluorescence at 595 nm for each well was read to indicate the cell viability.

Another series relates to Human mPB CD34+ cells. Kind of series: Proliferative activity on human granulocyte progenitors (flow cytometry). The class given is cell-based. The following applies: 7 days, flow cytometry. As for the experimental part: Human mPB CD34^+ cells were purchased from AllCells. Cells were resuspended in HSC expansion medium (StemSpan SFEM, StemCell Technologies) supplemented with 1× antibiotics and the following recombinant human cytokines: thrombopoietin, IL6, Flt3 ligand, and stem cell factor (100 ng/mL, R & D Systems), then plated in 96-well plates (1000 cells per well), with varied concentrations of BLV1H12-bGCSF fusion antibodies. Cells were cultured for 7 days at 37° C. in a 5% CO2 incubator, then analyzed by flow cytometry to measure cell number and expression of CD45ra and CD41. Cells were stained in staining medium (HBSS supplemented with 2% FBS and 2 mM EDTA) at 4° C. for 1 h with PECy7 anti-CD45ra and eFluor 450 anti-CD41 (eBiosciences), then washed with staining medium and analyzed. Multicolor analysis for cell phenotyping was performed on a LSR II flow cytometer (Becton Dickinson). FIGS. 10A-10E and Tables 9-10 show the human granulocyte progenitor cell proliferative activities of the Ab-GCSF fusion antibodies.

A short description of series [1]: Pharmacokinetics in mice (ELISA of blood samples). The class given is in vivo. The following applies: 70 μg injected, BALB/c mice. The method, then:
For PK study in mice, 70 μg of the immunoglobulin constructs described herein were injected into 3 BALB/c mice per group. Blood samples were drawn from time 0 to 14 days with extended intervals and analyzed by ELISA using anti-human IgG Fc antibody with horseradish peroxidase (HRP) labeled (KPL) and anti-6×His antibody (“6×His” disclosed as SEQ ID NO: 511) with HRP labeled (Clontech). Data were normalized by taking maximal concentration at the first time point (30 min).

For the next series, the system named is mice neutrophils. Kind of series: Neutrophil counts in mice, 10th day after injection. The class given is in vivo. The following applies: blood stained and counted at the 10th day post-injection. The method, then: On the 10th day after injection of BLV1H12-bGCSF fusion antibodies into mice for PK study, blood samples were drawn from the mice and stained using the Diff Quick Staining Kit (Thermo Fisher Scientific, IL). Neutrophils and white blood cells were counted under microscope and the percentages of neutrophils were analyzed. FIGS. 12A-12B and Table 12 show proliferative activities of BLV1H12-bGCSF fusion antibodies on mice neutrophils that are blood stained and counted at the 10th day post-injection.

T1 sequence (P43220 24-463, species assumed): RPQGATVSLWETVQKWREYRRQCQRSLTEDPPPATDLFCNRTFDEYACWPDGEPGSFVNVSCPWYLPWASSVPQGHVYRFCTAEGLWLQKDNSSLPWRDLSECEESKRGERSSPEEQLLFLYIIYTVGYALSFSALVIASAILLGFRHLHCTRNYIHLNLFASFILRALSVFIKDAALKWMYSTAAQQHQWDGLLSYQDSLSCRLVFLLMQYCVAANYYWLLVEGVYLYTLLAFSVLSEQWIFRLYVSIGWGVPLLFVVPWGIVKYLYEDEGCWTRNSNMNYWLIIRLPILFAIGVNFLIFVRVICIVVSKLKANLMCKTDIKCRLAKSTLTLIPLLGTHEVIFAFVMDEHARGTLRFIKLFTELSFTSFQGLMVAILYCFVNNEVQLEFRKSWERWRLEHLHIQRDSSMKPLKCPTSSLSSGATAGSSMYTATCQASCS

As to “Ab-Ex4: Exendin-4 with Factor Xa site and GGGGS linkers grafted into CDR3H of BLV1H12”, the “RLU (cAMP responsive luciferase reporter)” value stood at 6120 RLU with GLP-1 receptor (GLP-1R) (1.26953 nM); 6360 RLU with GLP-1 receptor (GLP-1R) (2.53906 nM); 8500 RLU with GLP-1 receptor (GLP-1R) (5.07813 nM); 10420 RLU in the series with GLP-1 receptor (GLP-1R) (10.15625 nM); 19340 RLU in the series with GLP-1 receptor (GLP-1R) (20.3125 nM); 27960 RLU with GLP-1 receptor (GLP-1R) (40.625 nM). The “RLU (cAMP responsive luciferase reporter)” value with GLP-1 receptor (GLP-1R) (81.25 nM) was 54800 RLU; with GLP-1 receptor (GLP-1R) (162.5 nM) it was 90660 RLU; with GLP-1 receptor (GLP-1R) (325 nM), 117900 RLU; with GLP-1 receptor (GLP-1R) (650 nM) it was 134760 RLU; in the series with GLP-1 receptor (GLP-1R) (1300 nM) it was 159660 RLU.
With “Ab-bGCSF L0: bovine G-CSF replacing the knob domain of BLV1H12 CDR3H, no linker (n=0), SEQ ID NO: 4”, the “F.I. (fluorescence at 595 nm, AlamarBlue, cell viability)” value in the series on Mouse NFS-60 cells (0.09876 ng/mL) turned out to be 1328; in the series on Mouse NFS-60 cells (0.29627 ng/mL), 1436; in the series with Mouse NFS-60 cells (0.88881 ng/mL), 1734.765; in the series on Mouse NFS-60 cells (2.66642 ng/mL), 2189; in the series on Mouse NFS-60 cells (7.99927 ng/mL) it was 2680; in the series with Mouse NFS-60 cells (23.9978 ng/mL) it was 2899. Also, the “F.I. (fluorescence at 595 nm, AlamarBlue, cell viability)” value with Mouse NFS-60 cells (71.9934 ng/mL) turned out to be 2921; in the series on Mouse NFS-60 cells (215.9802 ng/mL), 3416. The “Number of CD45RA-CD41-” value with Human mPB CD34+ cells (0.14225 ng/mL) is given as 2601; in the series with Human mPB CD34+ cells (0.42676 ng/mL), 2253; with Human mPB CD34+ cells (3.84088 ng/mL) it was 4399; in the series on Human mPB CD34+ cells (11.52263 ng/mL) it was 7262; in the series with Human mPB CD34+ cells (34.5679 ng/mL), 9902; in the series with Human mPB CD34+ cells (103.7037 ng/mL) it was 11500. Besides, the “Number of CD45RA-CD41-” value came to 11500 in the series with Human mPB CD34+ cells (311.11111 ng/mL), 11900 in the series with Human mPB CD34+ cells (933.33333 ng/mL) and 12100 with Human mPB CD34+ cells (2800 ng/mL). In addition, the “Percentage (blood level normalized to first time point, 30 min)” value in series [1] (day 0.021) stood at 100.00%; in series [1] (day 0.042), 91.12%; in series [1] (day 0.083), 91.24%; in series [1] (day 0.125), 91.56%; in series [1] (day 0.250) it was 61.22%; in series [1] (day 1.000), 44.22%. In addition, the “Percentage (blood level normalized to first time point, 30 min)” value in series [1] (day 2.000) was 36.36%; in series [1] (day 3.000), 27.38%; in series [1] (day 8.000), 11.53%; in series [1] (day 10.000) it was 12.44%; in series [1] (day 14.000) it was 14.35%. Moreover, in the series on mice neutrophils, the “Percentage of Neutrophil” value was found to be 25.05.
For the substance “Ab-bGCSF L1: bovine G-CSF replacing the knob domain of BLV1H12 CDR3H with GGGGS linkers on both ends (n=1), SEQ ID NO: 5”, the “F.I. (fluorescence at 595 nm, AlamarBlue, cell viability)” value is 1412.387 in the series on Mouse NFS-60 cells (0.09808 ng/mL); 1654.776 in the series on Mouse NFS-60 cells (0.29424 ng/mL); 2082.718 with Mouse NFS-60 cells (0.88272 ng/mL); 2550.674 in the series with Mouse NFS-60 cells (2.64816 ng/mL); 2997.807 in the series with Mouse NFS-60 cells (7.94449 ng/mL); 3277.812 in the series on Mouse NFS-60 cells (23.83346 ng/mL). In addition, the “F.I. (fluorescence at 595 nm, AlamarBlue, cell viability)” value came to 3308.383 in the series with Mouse NFS-60 cells (71.50039 ng/mL) and 3868.075 with Mouse NFS-60 cells (214.50117 ng/mL). Besides, the “Number of CD45RA-CD41-” value in the series with Human mPB CD34+ cells (0.30483 ng/mL) was found to be 4070; in the series with Human mPB CD34+ cells (0.91449 ng/mL), 3601; in the series on Human mPB CD34+ cells (2.74348 ng/mL), 4303; in the series on Human mPB CD34+ cells (8.23045 ng/mL) it was 6404; with Human mPB CD34+ cells (24.69136 ng/mL), 9122; in the series on Human mPB CD34+ cells (74.07407 ng/mL), 11200. The “Number of CD45RA-CD41-” value turned out to be 11000 with Human mPB CD34+ cells (222.22222 ng/mL), 11400 with Human mPB CD34+ cells (666.66667 ng/mL), 11400 in the series with Human mPB CD34+ cells (2000 ng/mL) and 13200 with Human mPB CD34+ cells (6000 ng/mL). In addition, the “Percentage (blood level normalized to first time point, 30 min)” value in series [1] (day 0.021) is on record as 100.00%; in series [1] (day 0.042), 102.12%; in series [1] (day 0.083), 104.03%; in series [1] (day 0.125), 101.71%; in series [1] (day 0.250), 93.90%; in series [1] (day 1.000), 59.26%. Also, the “Percentage (blood level normalized to first time point, 30 min)” value in series [1] (day 2.000) is given as 56.66%; in series [1] (day 3.000), 39.09%; in series [1] (day 8.000) it was 22.21%; in series [1] (day 10.000), 21.15%; in series [1] (day 14.000) it was 21.41%. Further, the “Percentage of Neutrophil” value with mice neutrophils was determined as 25.32.
